# Like-named read-outs stand apart in the source and are kept apart here.
# What was measured:
# [1] = rcm bond, toluene, 0.25 h
# HUVEC = assay: Tube formation assay; assay type: cell-based, human; conditions: HUVEC on matrigel, 16-18 h, tested concentrations 200, 100, 50, 25, 10 μM
# Protocol: A protocol was designed based on the instructions from the provider (BD Bioscience, San Jose, Calif.). Briefly, wells of a 48 well culture dish were covert with 150 μL matrigel and the matrigel was gelatinized for 30 min at 37° C. A 80-90% confluent HUVEC (BD Bioscience, San Jose, Calif.) culture was trypsin treated, the detached cells were collected by centrifugation and resuspended in EGM-2 media (BD Bioscience, San Jose, Calif.). Cell concentration was adjusted to 100.000 cells/mL. 400 μL of the cell suspension were filled in the matrigel coated wells, and a solution of the inhibitor was added to the intended final concentration. The plates were incubated at 37° C. with 5% CO2 for 16-18 h. Media was removed, and the matrigel surface was washed twice with 500 μL PBS before cells were labeled with 250 μL 8 μM Calcein AM (Pierce, Rockford, Ill.) in PBS for 30 min at 37° C. After two additional washing steps (500 μL PBS) cells were visualized under an inverted microscope. Fluorescence was excited at 488 nm and recorded at 538 nm. The minimum effect concentration was defined as the minimal inhibitor concentration that caused a definite disturbance of the complexity of the formed tube network.
# [2] = test system: mouse breast tumor cells (4T1 cells); assay: Boyden chamber cell migration assay, 4T1; assay type: cell-based; conditions: for IC50: 4T1 tumor cells, 6-8 hours, read-out: IC50 value, chamber cell migration assay; for inhibitory activity on tumor cell migration: 4T1 chamber assay
# [3] = Mouse blood plasma stability
# Protocol: The biological evaluation of the compounds (in terms of their ability to inhibit cell migration) was accomplished in a Boyden chamber cell migration assay. In this assay, mouse breast tumor cells (4T1 cells) or endothelial cells (HUVECs) are seeded on the upper chamber of a transwell insert. Growth factor-containing serum is added to the lower chamber.
# In anticipation of subsequent in vivo evaluation of these compounds and others, preliminary metabolic stability studies were carried out. […] As a test of the ‘deactivation hypothesis’, the hydrolysis product of macrolactone 48 was prepared (Scheme 27) and tested for its activity against tumor cell migration.
# [4] = test system: adherent cells (e.g. KYSE-520 cells); assay: Wound healing (scratch) assay, preliminary (Table 2); assay type: cell-based; conditions: 28 to 30 h, tested concentrations 200, 100, 50, 25, 10 μM
# Protocol: The wound healing assay was performed based on the method described by Nakae et al. (Nakae et al., J. Antibiotics (2000), 53, 1130-1136). Briefly, adherent cells were grown in a suitable media to confluence (e.g. KYSE-520 cells in RPMI-1640 with 10% FBS). Cells were starved for 24 h in serum free media A scratch (ca. 0.5 mm) was applied and the cell layer was washed twice with PBS after removal of the media. Fresh, serum free media with the test compound at the desired concentration was added and the cells were incubated for 28 to 30 h at 37° C., 5% CO2. The scratch size was compared to that observed for cells exposed to 100 μM Migrastatin. Test compounds associated with a scratch size equal to or larger than that observed for cells exposed to 100 μM Migrastatin were deemed to have cell migration inhibitory activity at least equal to Migrastatin.
# [5] = test system: mouse breast tumor cells (4T1 cells); conditions: chamber assay with mouse breast tumor cells; reported in WO 2004/087672; cited from earlier work
structure (smiles),measurement,setting,value
CO[C@H]1C=CCC/C=C/C(=O)OC/C(C)=C\[C@@H](C)[C@@H]1O[Si](C)(C)C(C)(C)C,"ring closure, yield of all isomers","[1]; from C=CCC/C=C/C(=O)OC/C(C)=C\[C@@H](C)[C@H](O[Si](C)(C)C(C)(C)C)[C@H](C=C)OC, Grubbs II, 0.664 mM, 111.0 °C",55%
CO[C@H]1C=CCC/C=C/C(=O)O[C@H]([C@H](C)C(=O)CCCC2CC(=O)NC(=O)C2)/C(C)=C\[C@@H](C)[C@@H]1O[Si](C)(C)C(C)(C)C,"ring closure, yield of all isomers","[1]; from C=CCC/C=C/C(=O)O[C@@H](/C(C)=C\[C@@H](C)[C@H](O[Si](C)(C)C(C)(C)C)[C@H](C=C)OC)[C@H](C)C(=O)CCCC1CC(=O)NC(=O)C1, Grubbs II, 0.46 mM, 111.0 °C",69%
CO[C@H]1C=CCCCCC(=O)CC/C(C)=C\[C@@H](C)[C@@H]1O[Si](C)(C)C(C)(C)C,"ring closure, yield of all isomers","[1]; from C=CCCCCC(=O)CC/C(C)=C\[C@@H](C)[C@H](O[Si](C)(C)C(C)(C)C)[C@H](C=C)OC, Grubbs-II catalyst, 0.508 mM, 110.0 °C",81%
CO[C@H]1C=CCCCCC(=O)NC/C(C)=C\[C@@H](C)[C@@H]1O[Si](C)(C)C(C)(C)C,"ring closure, yield of all isomers","[1]; from C=CCCCCC(=O)NC/C(C)=C\[C@@H](C)[C@H](O[Si](C)(C)C(C)(C)C)[C@H](C=C)OC, Grubbs II, 0.709 mM, 111.0 °C",60%
CO[C@H]1C=CCCCCC(=O)OC/C(C)=C\[C@@H](C)[C@@H]1O[Si](C)(C)C(C)(C)C,"ring closure, yield of all isomers","[1]; from C=CCCCCC(=O)OC/C(C)=C\[C@@H](C)[C@H](O[Si](C)(C)C(C)(C)C)[C@H](C=C)OC, Grubbs II, 0.498 mM, 111.0 °C",76%
CO[C@H]1C=CCCCCC(=O)O[C@@H](C(C)C)/C(C)=C\[C@@H](C)[C@@H]1O,"ring closure, yield of all isomers","[1]; from C=CCCCCC(=O)O[C@H](/C(C)=C\[C@@H](C)[C@H](O[Si](C)(C)C(C)(C)C)[C@H](C=C)OC)C(C)C, Grubbs-II catalyst, 0.53 mM, 110.0 °C, 2 steps",65%
CO[C@H]1C=CCCCCC(=O)O[C@H]([C@H](C)C(=O)CCCC2CC(=O)NC(=O)C2)/C(C)=C\[C@@H](C)[C@@H]1O[Si](C)(C)C(C)(C)C,"ring closure, yield of all isomers","[1]; from C=CCCCCC(=O)O[C@@H](/C(C)=C\[C@@H](C)[C@H](O[Si](C)(C)C(C)(C)C)[C@H](C=C)OC)[C@H](C)C(=O)CCCC1CC(=O)NC(=O)C1, Grubbs II, 0.48 mM, 111.0 °C",79%
"COC1C=CCCCCC(=O)OC(C(C)C(=O)CCCC2CC(=O)NC(=O)C2)C(C)=CC(C)C1O (stereo not shown) [Compound 41, 2,3-Dihydromigrastatin]",Minimum effect concentration,HUVEC,50 µM
same,IC50,[2],10 µM
same,metabolic stability in mouse blood plasma,"[3]; mouse, plasma",completely inert toward lactone opening
same,Minimum effect concentration,[4],25 µM
"COC1C=CCCCCC(=O)OC(C(C)C(=O)CCCC2CC(=O)N(C)C(=O)C2)C(C)=CC(C)C1O (stereo not shown) [Compound 42, N-Methyl-2,3-Dihydromigrastatin]",IC50,[2],7 µM
same,metabolic stability in mouse blood plasma,"[3]; mouse, plasma",completely inert toward lactone opening
"CO[C@H]1/C=C/CC/C=C/C(=O)OC/C(C)=C\[C@@H](C)[C@@H]1O [Compound 45, Migrastatin Core]",Minimum effect concentration,HUVEC,10 µM
same,metabolic stability in mouse blood plasma,[3]; test period one hour,hydrolyzed rapidly
"CO[C@H]1/C=C/CCCCC(=O)OC/C(C)=C\[C@@H](C)[C@@H]1OC(C)=O [Compound 49, Acetylated Macrolactone]",inhibitory activity on tumor cell migration,[2],reduced by roughly an order of magnitude
"CO[C@H]1/C=C/CCCCC(=O)OC/C(C)=C\[C@@H](C)C1=O [Compound 50, Oxidized Macrolactone]",inhibitory activity on tumor cell migration,[2],reduced by roughly an order of magnitude
"CO[C@@H](/C=C/CCCCC(=O)O)[C@@H](O)[C@H](C)/C=C(/C)CO [Compound 51, Hydrolyzed Core]",IC50,[2]; Mus musculus,0.378 µM
"COC1C=CCCCCC(=O)OC(C(C)C)C(C)=CC(C)C1O [Compound 65, (S)-Isopropyl Macrolactone]",inhibitory activity on tumor cell migration,[2],only very weak effects on tumor cell migration
same,metabolic stability in mouse blood plasma,"[3]; mouse, plasma",no sign of degradation
"COC1C=CCCCCC(=O)OC(C(C)C)C(C)=CC(C)C1O [Compound 68, (R)-Isopropyl Macrolactone]",inhibitory activity on tumor cell migration,[2],only very weak effects on tumor cell migration
same,metabolic stability in mouse blood plasma,"[3]; mouse, plasma",no sign of degradation
"CO[C@H]1/C=C/CCCCC(O)CC/C(C)=C\[C@@H](C)[C@@H]1O (stereo partly shown) [Compound 69, Macrocyclic Secondary Alcohol]",ability to inhibit tumor cell migration,[5],rather weak migration inhibitors
"CO[C@H]1/C=C/CCCCC(C)(O)CC/C(C)=C\[C@@H](C)[C@@H]1O (stereo partly shown) [Compound 70, Macrocyclic Tertiary Alcohol]",ability to inhibit tumor cell migration,[5],rather weak migration inhibitors
"CO[C@H]1/C=C/CCCCC(O)(C(F)(F)F)CC/C(C)=C\[C@@H](C)[C@@H]1O (stereo partly shown) [Compound 71, Macrocyclic CF3-Alcohol]",ability to inhibit tumor cell migration,[5],displays the same activity profile as macroketone 60
"CO[C@H]1/C=C/CCCCC(=NO)CC/C(C)=C\[C@@H](C)[C@@H]1O [Compound 72, Macrooxime]",ability to inhibit tumor cell migration,[5],rather weak migration inhibitors
COC1C=CCCC=CC(=O)OC(C(C)C(=O)CCCC2CC(=O)N(C)C(=O)C2)C(C)=CC(C)C1O (stereo not shown) [N-Methyl-migrastatin],Minimum effect concentration,HUVEC,200 µM
same,Minimum effect concentration,[4],100 µM

# — patent US8957056B2, “Migrastatin analogs in the treatment of cancer” (Sloan-Kettering Instiute for Cancer Research, priority 2004, dated 2015)
